Columns and labels:
[1] = tested on: MDA-MB-435; experiment: IC50 cell-based assay, adherent cells, MDA-MB-435; details: Homo sapiens, Breast, carcinoma—ductal, 72 hours, read-out: IC50 of Compounds in Adherent Cell Types
Procedure: (§1) In one embodiment, the IC50s of the compounds provided herein were determined in cell-based assays using adherent cells. In one embodiment, the activity of the compounds provided herein were determined in a cell-based assay using the triple negative breast cancer cell line MDA-MB-468. In one embodiment, the adherent cells used in the cell-based assays may be a cell type selected from Table 1. In one embodiment, the cell-based assay may be carried out as provided herein. On day 0, cells were seeded at 20,000 cells per well in 100 µL of media into individual wells of a 96-well tissue culture plate. The next day, compounds were diluted to twice the desired final concentration and added in 100 µL of media for a final volume of 200 μL. Standard solutions for each compound were prepared at 1000× concentration in DMSO. The highest concentration was 30 mM. Serial 1:1 dilutions were made from there for a 6- or 9-point curve (e.g., 30 mM, 15 mM, 7.5 mM, etc). Compounds were then diluted 1:500 in media, and 100 µL of the resulting solution was added to each well for a final dilution of 1:1000. […] Cells were placed back in the incubator, and the absorbance at 490 nm was read after 2-3 hours. […] “Percent Viability” was determined by subtracting the average background value (media only) and expressed as a ratio to the average value obtained from cells treated with only DMSO.

[2] = tested on: Mia PaCa-2; experiment: IC50 cell-based assay, adherent cells, Mia PaCa-2; details: Homo sapiens, Pancreas, carcinoma, 72 hours, read-out: IC50 of Compounds in Adherent Cell Types
Procedure: as §1

IC50 [1]: < 5 µM
IC50 [2]: < 5 µM
SMILES: O=C(Nc1cc(C(F)(F)F)cc(C(F)(F)F)c1)c1cc(-c2ccccc2)oc1C(F)(F)F [Compound 1, 5-Phenyl-2-trifluoromethyl-furan-3-carboxylic acid (3,5-bis-trifluoromethyl-phenyl)-amide]
